Assay results reported in US11001569B2, “6-membered heteroaromatic substituted cyanoindoline derivatives as NIK inhibitors” (Janssen Pharmaceutica NV, priority 2016, dated 2021).
Like-named read-outs stand apart in the source and are kept apart here.

Legend:
[1] = system: JJN-3 (NIK translocated) multiple myeloma cells; experiment: Antiproliferative activity on JJN-3 multiple myeloma cells (CellTiter-Glo); format: cell-based, human; details: JJN-3 (NIK translocated) cells, 96 hr treatment, averaged values, read-out: JJN-3 Proliferation inhibition (IC50 (nM))
Method in brief: (§1)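 Cells plated at 15000 (JJN3) or 20000 (KMS12BM) per well and treated 96 h at 37° C, 5% CO2, final DMSO 0.3%, 9-point 1:3 dilutions. Viability by CellTiter-Glo luminescence; time-zero blank subtracted, growth expressed as percent of untreated control.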

[2] = biological target: recombinant human NF-kappaB-inducing Kinase (NIK/MAP3K14) (Homo sapiens, UniProt Q99558); experiment: Inhibition of auto-phosphorylation of recombinant human NIK/MAP3K14 activity (AlphaScreen); format: biochemical; details: 25 microM ATP, averaged over all measurements on all batches
[3] = system: P-IKKα levels in L363 (NIK translocated multiple myeloma) cells; experiment: Effect of compounds on P-IKKα levels in L363 cells (Mesoscale sandwich immuno-assay); format: cell-based, human; details: 2 hr treatment, averaged values, read-out: Inhibition of pIKKα_L-363 (IC50 (nM))
Procedure: Effect of Compounds on P-IKKα Levels in L363 (NIK Translocated Multiple Myeloma) Cells
All compounds tested were dissolved in DMSO and further dilutions were made in culture medium. Final DMSO concentration was 1% (v/v) in cell assays. The human L363 cells (ATCC) were cultured in RPMI 1640 medium supplemented with GlutaMax and 10% fetal calf serum (PAA). Cells were routinely maintained at densities of 0.2×10^6 cells per ml-1×10^6 cells per ml at 37° C. in a humidified 5% CO2 atmosphere. Cells were passaged twice a week splitting back to obtain the low density. Cells were seeded in 96 well plates (Nunc 167008) at 2×10^6 per ml media in a volume of 75 μl per well plus 25 μl 1 μg/ml recombinant human B-cell activating factor (BAFF/BLyS/TNFSF13B). Seeded cells were incubated at 37° C. in a humidified 5% CO2 atmosphere for 24 hr. Drugs and/or solvents were added (20 μl) to a final volume of 120 μl. Following 2 hr treatment plates were removed from the incubator and cell lysis was achieved by the addition of 30 μl 5× lysis buffer followed by shaking on a plate shaker at 4° C. for 10 min. At the end of this incubation lysed cells were centrifuged at 800×g for 20 min at 4° C. and the lysate was assessed for P-IKK levels by sandwich immuno-assay carried out in anti-rabbit antibody coated Mesoscale plates. Within an experiment, the results for each treatment were the mean of 2 replicate wells. For initial screening purposes, compounds were tested using an 8 point dilution curve (serial 1:3 dilutions). […] The blank incubation value was subtracted from all control and sample values. To determine the IC50 a sigmoidal curve was fitted to the plot of % inhibition of control P-IKKα levels versus Log10 compound concentration.

[4] = system: KMS12-BM (NIK WT) multiple myeloma cells; experiment: Antiproliferative activity on KMS12-BM multiple myeloma cells (CellTiter-Glo); format: cell-based, human; details: 96 hr treatment, averaged values, read-out: KMS-12 Proliferation inhibition (IC50 (nM))
Method in brief: as §1

Chain of recombinant human NF-kappaB-inducing Kinase (NIK/MAP3K14) (Q99558 whole entry): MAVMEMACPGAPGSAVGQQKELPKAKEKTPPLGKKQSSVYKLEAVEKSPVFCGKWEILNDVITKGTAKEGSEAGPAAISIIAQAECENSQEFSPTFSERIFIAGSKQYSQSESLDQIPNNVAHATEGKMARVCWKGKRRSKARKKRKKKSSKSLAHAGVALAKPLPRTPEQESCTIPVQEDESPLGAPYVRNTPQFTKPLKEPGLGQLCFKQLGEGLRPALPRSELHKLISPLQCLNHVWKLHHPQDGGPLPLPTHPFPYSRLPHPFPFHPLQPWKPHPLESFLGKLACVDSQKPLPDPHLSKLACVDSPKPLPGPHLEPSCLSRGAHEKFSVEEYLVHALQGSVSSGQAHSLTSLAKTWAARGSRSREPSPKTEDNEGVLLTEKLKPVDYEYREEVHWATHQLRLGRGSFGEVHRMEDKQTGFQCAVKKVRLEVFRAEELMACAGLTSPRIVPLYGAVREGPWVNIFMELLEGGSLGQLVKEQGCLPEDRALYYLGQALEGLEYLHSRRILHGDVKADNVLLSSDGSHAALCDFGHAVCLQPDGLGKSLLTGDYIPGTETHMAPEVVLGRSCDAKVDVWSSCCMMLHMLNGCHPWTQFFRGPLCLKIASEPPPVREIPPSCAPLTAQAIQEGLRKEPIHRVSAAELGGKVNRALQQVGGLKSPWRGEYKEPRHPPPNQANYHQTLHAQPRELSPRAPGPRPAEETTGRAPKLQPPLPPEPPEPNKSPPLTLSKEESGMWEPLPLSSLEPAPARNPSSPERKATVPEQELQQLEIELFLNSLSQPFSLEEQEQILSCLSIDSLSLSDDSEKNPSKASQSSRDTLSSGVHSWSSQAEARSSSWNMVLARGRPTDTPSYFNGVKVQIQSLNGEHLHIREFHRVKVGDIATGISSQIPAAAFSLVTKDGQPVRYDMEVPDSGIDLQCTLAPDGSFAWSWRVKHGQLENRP

| Compound | IC50 ([1]; Homo sapiens, JJN-3, 96 h) | IC50 [2] | IC50 ([3]; Homo sapiens, L-363, 2 h) | melting point | IC50 ([4]; Homo sapiens, KMS-12-BM, 96 h) | IC50 [1] | IC50 [3] | IC50 [4] |
| --- | --- | --- | --- | --- | --- | --- | --- | --- |
| C[C@]1(CO)CNc2c(C#N)cc(-c3ccnc(Nc4cc(C#N)cnc4OCC4CC4)n3)cc21 [Compound 74] | 141 nM | 16.2 nM | ~120 nM | 206 °C | > 10000 nM |  |  |  |
| Cc1cc(Nc2nccc(-c3cc(C#N)c4c(c3)[C@@](C)(CO)CN4)n2)c(=O)n(C)c1 [Compound 9i] | 120 nM | 1 nM | 8.5 nM | 313 °C | > 10000 nM |  |  |  |
| Cc1cc(Nc2nccc(-c3cc(C#N)c4c(c3)[C@@](C)(CO)CN4)n2)c(C)nc1OCC1COC1 [Compound 160] | 115 nM | 3.9 nM | 2.1 nM | 189 °C | > 10000 nM |  |  |  |
| Cc1cc(Nc2nccc(-c3cc(C#N)c4c(c3)[C@@](C)(CO)CN4)n2)c(=O)n(CCN2CCN(C)CC2)c1 [Compound 19i] | 25 nM | 0.6 nM | 2.5 nM | 148 °C | > 10000 nM |  |  |  |
| C[C@]1(CO)CNc2c(C#N)cc(-c3ccnc(Nc4cc(F)cn(CCN5CCOCC5)c4=O)n3)cc21 [Compound 3i] | ~1780 nM | 1.3 nM | 3.3 nM | 252 °C | > 10000 nM |  |  |  |
| COc1nc(C)c(Nc2nccc(-c3cc(C#N)c4c(c3)[C@@](C)(CO)CN4)n2)cc1C [Compound 168] | 39 nM | 3 nM | 2.4 nM | 260 °C | > 10000 nM |  |  |  |
| Cc1cnc(CO)cc1Nc1nccc(-c2cc(C#N)c3c(c2)[C@@](C)(CO)CN3)n1 [Compound 156] | 105 nM | 2.3 nM | 6.3 nM | 245 °C | ~6460 nM |  |  |  |
| Cc1cnc(OCC2COCCN2C)c(Nc2nccc(-c3cc(C#N)c4c(c3)[C@@](C)(CO)CN4)n2)c1 (single isomer, unassigned) [Compound 149] |  | 8.9 nM |  | 146 °C |  | 29 nM | 7.8 nM | > 10000 nM |
| CN(C)C(=O)Cn1cc(Cl)cc(Nc2nccc(-c3cc(C#N)c4c(c3)[C@@](C)(CO)CN4)n2)c1=O [Compound 11i] | ~1120 nM | 1.9 nM | 3.2 nM | 299 °C | > 10000 nM |  |  |  |
| Cc1cc(Nc2nccc(-c3cc(C#N)c4c(c3)[C@@](C)(CO)CN4)n2)c(C)cn1 [Compound 167] | 30 nM | 1.7 nM | 2.8 nM | 263 °C | > 10000 nM |  |  |  |
| Cc1cnc(CCN2CC(F)C2)c(Nc2nccc(-c3cc(C#N)c4c(c3)[C@@](C)(CO)CN4)n2)c1 [Compound 150] | 132 nM | 12 nM | 25.7 nM | 171 °C | > 10000 nM |  |  |  |
| C[C@]1(CO)CNc2c(C#N)cc(-c3ccnc(Nc4cc(Cl)cnc4C4CC4)n3)cc21 [Compound 46] | 28 nM | 3 nM | 4.7 nM | 234 °C | ~7940 nM |  |  |  |
| Cc1cnc(C2CCOCC2)c(Nc2nccc(-c3cc(C#N)c4c(c3)[C@@](C)(CO)CN4)n2)c1 [Compound 173] | 933 nM | 15.1 nM | 69.2 nM | 225 °C | > 10000 nM |  |  |  |
| Cc1cc(Nc2nccc(-c3cc(C#N)c4c(c3)[C@@](C)(CO)CN4)n2)c(=O)n(CCN2CC(C)OC(C)C2)c1 (some centres unmarked) [Compound 2i] | 479 nM | 1.8 nM | 1.1 nM | 135 °C | 5500 nM |  |  |  |
| CN(C)C(=O)/C=C/c1ccc(Nc2nccc(-c3cc(C#N)c4c(c3)[C@@](C)(CO)CN4)n2)c(CCC2CC2)n1 [Compound 88] | 148 nM | 4.2 nM | 22.4 nM | 198 °C | > 10000 nM |  |  |  |
| CNC(=O)c1cnc(C)c(Nc2nccc(-c3cc(C#N)c4c(c3)[C@@](C)(CO)CN4)n2)c1 [Compound 93] | 1440 nM | 2.1 nM | 5.6 nM | 165 °C | 9550 nM |  |  |  |

| Compound | IC50 ([1]; Homo sapiens, JJN-3, 96 h) | IC50 [2] | IC50 ([3]; Homo sapiens, L-363, 2 h) | melting point | IC50 ([4]; Homo sapiens, KMS-12-BM, 96 h) | IC50 [1] | IC50 [3] | IC50 [4] |
| --- | --- | --- | --- | --- | --- | --- | --- | --- |
| COCCCc1ncc(C#N)cc1Nc1nccc(-c2cc(C#N)c3c(c2)[C@@](C)(CO)CN3)n1 [Compound 65] | 263 nM | 4.5 nM | 15.5 nM | 158 °C | > 10000 nM |  |  |  |
| Cc1cc(Nc2nccc(-c3cc(C#N)c4c(c3)[C@@](C)(CO)CN4)n2)c(=O)n(CCN2CC(F)C2)c1 [Compound 1i] | 347 nM | 1.1 nM | 2.6 nM | 149 °C | 3890 nM |  |  |  |
| Cc1cc(Nc2nccc(-c3cc(C#N)c4c(c3)[C@@](C)(CO)CN4)n2)c(OC(C)C)nc1CCN1CC(F)C1 [Compound 157] | 62 nM | 9.3 nM | 25.7 nM | 173 °C | > 10000 nM |  |  |  |
| Cc1cnc(OCC2CN(C)CCO2)c(Nc2nccc(-c3cc(C#N)c4c(c3)[C@@](C)(CO)CN4)n2)c1 (single isomer, unassigned) [Compound 151] | 66 nM | 5.5 nM |  | 114 °C | > 10000 nM |  | 13.8 nM |  |
| Cc1cc(Nc2nccc(-c3cc(C#N)c4c(c3)[C@@](C)(CO)CN4)n2)c(=O)n(CC(C)N2CCOCC2)c1 (mixture of isomers) [Compound 18i] | 49 nM | 0.9 nM | 4.9 nM | 208 °C | > 10000 nM |  |  |  |
| COc1nc(-c2cnn(C)c2)c(C)cc1Nc1nccc(-c2cc(C#N)c3c(c2)[C@@](C)(CO)CN3)n1 [Compound 91] | 81 nM | 8.9 nM | 5.4 nM | 166 °C | > 10000 nM |  |  |  |
| COc1ncc(C(F)(F)F)cc1Nc1nccc(-c2cc(C#N)c3c(c2)[C@@](C)(CO)CN3)n1 [Compound 183] | 63 nM | 15.8 nM | 40.7 nM | 209 °C | > 10000 nM |  |  |  |
| Cc1cc(Nc2nccc(-c3cc(C#N)c4c(c3)[C@@](C)(CO)CN4)n2)c(=O)n(Cc2nccn2C)c1 [Compound 4i] | 316 nM | 1.3 nM | 8.9 nM | 235 °C | > 10000 nM |  |  |  |
| CN(C)C(=O)COc1ncc(Cl)cc1Nc1nccc(-c2cc(C#N)c3c(c2)[C@@](C)(CO)CN3)n1 [Compound 52] | 251 nM | ~1.48 nM | 0.7 nM | 281 °C | 871 nM |  |  |  |
| Cc1cc(Nc2nccc(-c3cc(C#N)c4c(c3)[C@@](C)(CO)CN4)n2)c(=O)n(CCN2CC(C)NC(C)C2)c1 (some centres unmarked) [Compound 16i] | 25 nM | 1.2 nM | 11 nM | 232 °C | > 10000 nM |  |  |  |
| Cc1cc(Nc2nccc(-c3cc(C#N)c4c(c3)[C@@](C)(COC(=O)C(C)C)CN4)n2)c(=O)n(CCN2CC(C)OC(C)C2)c1 (some centres unmarked) [Compound 24i] | 32 nM | 23.4 nM | 5.5 nM | 120 °C | > 10000 nM |  |  |  |
| COCCOc1ncc(C)cc1Nc1nccc(-c2cc(C#N)c3c(c2)[C@@](C)(CO)CN3)n1 [Compound 69] | 263 nM | 3.2 nM | ~129 nM | 186 °C | > 10000 nM |  |  |  |
| CC1(C)CNc2c(C#N)cc(-c3ccnc(Nc4cc(F)cn(CCN5CC(F)C5)c4=O)n3)cc21 [Compound 28i] |  | 7.6 nM | 21.4 nM | 235 °C |  |  |  |  |
| CC1(C)CNc2c(C#N)cc(-c3ccnc(Nc4cc(Cl)cnc4C(=O)N4CCC(O)C4)n3)cc21 (centres unmarked) [Compound 180] |  | 339 nM | 617 nM | 143 to 145 °C |  |  |  |  |
| Cc1cnc(OCC2CN(C)CCO2)c(Nc2nccc(-c3cc(C#N)c4c(c3)[C@@](C)(CO)CN4)n2)c1 (single isomer, unassigned) [Compound 152] |  | 14.1 nM |  | 140 °C |  |  | 85.1 nM |  |
